The values that follow come from US20090045056A1, “Stable three enzyme creatinine biosensor” (priority 2004, published 2009).

In assay [1] the target is T1, sarcosine oxidase (Bacillus sp., UniProt P40859).
T1 sequence (P40859 1-390): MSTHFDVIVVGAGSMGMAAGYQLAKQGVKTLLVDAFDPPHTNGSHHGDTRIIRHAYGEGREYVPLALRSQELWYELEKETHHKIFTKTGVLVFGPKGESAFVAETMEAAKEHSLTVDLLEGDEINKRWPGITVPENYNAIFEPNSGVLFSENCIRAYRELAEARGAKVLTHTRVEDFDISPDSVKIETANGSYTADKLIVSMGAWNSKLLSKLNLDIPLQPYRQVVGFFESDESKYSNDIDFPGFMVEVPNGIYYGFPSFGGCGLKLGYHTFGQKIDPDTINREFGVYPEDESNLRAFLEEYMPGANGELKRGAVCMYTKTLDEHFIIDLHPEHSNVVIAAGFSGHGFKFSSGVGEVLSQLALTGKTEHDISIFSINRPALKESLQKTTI
The following applies: cited from earlier work; for Ki: inhibitor of sarcosine oxidase.

Assay [2] has as its system creatine amidinohydrolase. Nature of the assay: Additives to prevent silver inhibition of creatine amidinohydrolase. Type of assay: biochemical, Actinobacilus sp. The conditions noted are these: 50 mM additive, pre-incubation. Here is the method:
Creatine amidinohydrolase (1.0 mg/ml) was prepared in solution with either 50 mM EDT A, 50 mM EGT A, 50 mM mercaptoethanol, 50 mM DTT or 50 mM cysteine with 20 mM Tris, pH 7.5.

In assay [3] the test system is creatine amidinohydrolase. The following applies: 5-100 μM silver nitrate.
Method: Creatine amidinohydrolase activity was monitored using a colorimetric assay that measures urea formation from the hydrolysis of creatine (Tsuchida and Yoda, Clin. Chem. 29:51-55 (1983)). An enzyme solution (0.1 mL) was incubated with a mixture (0.90 mL) of 100 mM creatine in sodium phosphate buffer (50 mM, pH 7.5) at 37° C. for 10 minutes. The reaction was stopped by adding 2.0 mL of a solution containing Ehrlich's reagent (2.0 g of p-dimethyl aminobenzaldehyde in 100 mL of dimethyl sulfoxide plus 15 mL of concentrated HCl). The solution was incubated for 20 minutes at room temperature and the absorbance at 435 nm was measured. One unit was defined as the amount of enzyme that catalyzes the hydrolysis of 1 μmol of substrate per minute.
Samples were removed periodically and assayed using the end point assay. […] After 10 minutes of incubation, the stop solution (p-dimethyl benzaldehyde solution) was added.
For assay [4], the system named is creatinine amidohydrolase. The conditions noted are these: silver nitrate from 1 nM, 5 min to 1 hr incubation.
Method: An enzyme solution (0.1 mL) was incubated with a mixture (0.90 mL) of 100 mM creatine in mM soditim phosphate (pH 7.5) at 37° C. for 10 minutes. After 10 minutes, the creatine/enzyme mixture (0.1 mL) was added to 0.5 M sodium hydroxide (1.9 mL) and 1% picric acid (1.0 mL). This solution was incubated for 20 minutes at room temperature and the absorbance at 520 nm was measured. One unit was defined as the amount of enzyme which catalyzed the formation of 1 μmol of creatinine per minute.
Samples were removed periodically and assayed using the end point assay.
In assay [5] the target is sarcosine oxidase (Arthrobacter sp., UniProt P40873). The following applies: 1 nM to 1 mM silver nitrate, various incubation times, residual activity assayed in absence of silver.
Chain of sarcosine oxidase (Arthrobacter sp., UniProt P40873) (P40873 whole entry): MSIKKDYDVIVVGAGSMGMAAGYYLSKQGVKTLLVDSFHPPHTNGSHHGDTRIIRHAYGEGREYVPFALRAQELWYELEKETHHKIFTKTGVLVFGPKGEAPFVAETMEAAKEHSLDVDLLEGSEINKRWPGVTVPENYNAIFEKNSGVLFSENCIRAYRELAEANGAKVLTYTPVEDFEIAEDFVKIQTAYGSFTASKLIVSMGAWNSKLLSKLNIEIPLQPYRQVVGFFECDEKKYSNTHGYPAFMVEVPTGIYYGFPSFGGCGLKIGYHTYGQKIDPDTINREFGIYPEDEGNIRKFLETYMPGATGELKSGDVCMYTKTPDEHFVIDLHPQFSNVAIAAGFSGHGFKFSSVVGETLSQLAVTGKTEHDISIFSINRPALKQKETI
Method: Typically, an enzyme solution (0.05 mL) was incubated with a mixture (1.0 mL total) of 95 mM sarcosine, 0.47 mM 4-aminoantipyrene, 2 mM phenol, 0.045% Triton X-100, 50 mM sodium phosphate (pH 8.0) and 5 units/mL of horseradish peroxidase at 37° C. for 10 minutes. The reaction was terminated by addition of 2.0 mL of 0.25% SDS solution and the absorbance at 500 nm was measured. One unit was defined as the amount of enzyme that catalyzed the oxidation of 1). mol of substrate per minute.
Samples were removed periodically and assayed using the end point assay for sarcosine oxidase activity.

As a reminder, the Ki is a measure of affinity in units of concentration, obtained from inhibition or displacement. For `CSCC(=O)O` [(methylthio)acetic acid], the Ki at sarcosine oxidase [1] is 2600 µM.
As for `O[C@@H](CS)[C@@H](O)CS` [DTT], the “prevention of silver inhibition of creatine amidinohydrolase” value in assay [2] was “effectively prevented”.
For the compound `O=C(O)c1ccc[nH]1` [Pyrrole-2-carboxylic acid], the Ki on sarcosine oxidase [1] is 1370 µM.
For the compound `N[C@@H](CS)C(=O)O` [cysteine], the “prevention of silver inhibition of creatine amidinohydrolase” value in assay [2] is listed as “effectively prevented”.
Same read-out and setting: in the case of `OCCS` [mercaptoethanol] it was “effectively prevented”.
By Km is commonly meant the substrate concentration at which the rate is half of its maximum. For `CNCC(=O)O` [sarcosine], at sarcosine oxidase [1] (native substrate of sarcosine oxidase), the Km was 600 µM.
Consider `O=[N+]([O-])[O-].[Ag+]` [silver nitrate], for which the “inhibition of creatine amidinohydrolase by silver ions” value in assay [3] was “completely inhibiting enzyme activity”. Moreover, the “inhibition of creatinine amidohydrolase by silver ions” value in assay [4] was “effective inhibitor of creatinine amidinohydrolase at high concentrations”. On sarcosine oxidase [5], the “inhibition of sarcosine oxidase by silver ions” value is “effective irreversible inhibitor”.
